Assay results from ChEMBL document CHEMBL1201862, “PubChem BioAssay data set” (2004).
Each block holds one compound with its values, some of them ahead of it. Activity calls are given as the source filed them.

Experiments:
[1] = molecular target: Aryl hydrocarbon receptor (Homo sapiens, UniProt P35869); assay: Luminescence-based cell-based high throughput dose response assay for activators of the Aryl Hydrocarbon Receptor (AHR). [Related pubchem assays: 2796 (Primary screen (AHR activators in singlicate)), 2845 (Confirmation screen (AHR activators in triplicate)), 434939 (Counterscreen (PXR activators in triplicate)), 2804 (Summary (AHR activators))]; assay type: ADME
Sequence of Aryl hydrocarbon receptor (P35869 whole entry): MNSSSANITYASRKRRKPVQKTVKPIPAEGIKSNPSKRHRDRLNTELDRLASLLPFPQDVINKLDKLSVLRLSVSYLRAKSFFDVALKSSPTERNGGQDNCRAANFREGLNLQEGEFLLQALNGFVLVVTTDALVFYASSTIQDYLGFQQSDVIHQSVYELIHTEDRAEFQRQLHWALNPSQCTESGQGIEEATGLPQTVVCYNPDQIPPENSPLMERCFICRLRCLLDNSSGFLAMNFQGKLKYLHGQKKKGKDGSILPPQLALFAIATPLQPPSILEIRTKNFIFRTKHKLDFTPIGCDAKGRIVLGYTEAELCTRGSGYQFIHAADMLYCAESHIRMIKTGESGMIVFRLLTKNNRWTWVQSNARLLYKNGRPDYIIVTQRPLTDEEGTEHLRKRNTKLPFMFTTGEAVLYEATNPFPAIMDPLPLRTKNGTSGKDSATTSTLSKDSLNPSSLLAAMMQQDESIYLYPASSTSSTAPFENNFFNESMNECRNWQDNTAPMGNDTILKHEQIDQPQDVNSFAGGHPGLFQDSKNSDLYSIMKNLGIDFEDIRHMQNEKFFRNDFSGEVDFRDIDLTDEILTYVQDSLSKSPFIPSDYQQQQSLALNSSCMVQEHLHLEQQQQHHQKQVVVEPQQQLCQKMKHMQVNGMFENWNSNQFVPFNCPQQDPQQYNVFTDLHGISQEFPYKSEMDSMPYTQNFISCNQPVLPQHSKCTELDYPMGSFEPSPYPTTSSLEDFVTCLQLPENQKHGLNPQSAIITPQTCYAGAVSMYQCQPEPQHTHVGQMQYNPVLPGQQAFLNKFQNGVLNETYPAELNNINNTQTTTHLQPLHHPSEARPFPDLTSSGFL

Leucine aminopeptidase = molecular target: T1, Leucine aminopeptidase (Plasmodium falciparum 3D7, UniProt Q8IL11); assay: P. falciparum M17LAP inhibitors, primary screen, biochemical, fluorogenic H-Leu-NHMec substrate, 1536-well (AID 1619); assay type: functional
T1 sequence (Q8IL11 whole entry): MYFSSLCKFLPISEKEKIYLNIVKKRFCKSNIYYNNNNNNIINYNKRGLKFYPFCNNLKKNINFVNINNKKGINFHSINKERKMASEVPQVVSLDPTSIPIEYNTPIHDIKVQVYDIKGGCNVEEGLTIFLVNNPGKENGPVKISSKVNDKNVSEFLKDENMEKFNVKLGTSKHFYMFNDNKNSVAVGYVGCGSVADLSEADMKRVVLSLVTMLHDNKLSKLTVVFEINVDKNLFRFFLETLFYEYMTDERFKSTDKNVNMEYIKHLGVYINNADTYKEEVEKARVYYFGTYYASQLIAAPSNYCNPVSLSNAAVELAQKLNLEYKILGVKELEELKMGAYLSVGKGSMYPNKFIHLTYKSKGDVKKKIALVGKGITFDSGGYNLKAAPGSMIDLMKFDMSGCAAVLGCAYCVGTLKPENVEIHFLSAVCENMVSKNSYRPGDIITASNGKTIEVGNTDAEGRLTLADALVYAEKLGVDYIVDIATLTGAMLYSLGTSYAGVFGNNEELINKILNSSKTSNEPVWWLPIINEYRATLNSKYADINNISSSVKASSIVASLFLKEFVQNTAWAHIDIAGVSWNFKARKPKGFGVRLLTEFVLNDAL

NADPH oxidase 1 = molecular target: T2, NADPH oxidase 1 (Homo sapiens, UniProt Q9Y5S8); assay: Late stage results from the probe development effort to identify inhibitors of NOX1: HEK/293 IC50. [Related pubchem assays: 1796 (Summary AID (NOX1)), 2752 (Primary screen (NOX1 inhibitors, synthesized analogs set 2)), 2664 (Primary screen (NOX1 inhibitors, synthesized analogs)), 1792 (Primary Screen (NOX1)), 2545 (Confirmation screen (NOX1 …; assay type: functional
T2 sequence (Q9Y5S8 whole entry): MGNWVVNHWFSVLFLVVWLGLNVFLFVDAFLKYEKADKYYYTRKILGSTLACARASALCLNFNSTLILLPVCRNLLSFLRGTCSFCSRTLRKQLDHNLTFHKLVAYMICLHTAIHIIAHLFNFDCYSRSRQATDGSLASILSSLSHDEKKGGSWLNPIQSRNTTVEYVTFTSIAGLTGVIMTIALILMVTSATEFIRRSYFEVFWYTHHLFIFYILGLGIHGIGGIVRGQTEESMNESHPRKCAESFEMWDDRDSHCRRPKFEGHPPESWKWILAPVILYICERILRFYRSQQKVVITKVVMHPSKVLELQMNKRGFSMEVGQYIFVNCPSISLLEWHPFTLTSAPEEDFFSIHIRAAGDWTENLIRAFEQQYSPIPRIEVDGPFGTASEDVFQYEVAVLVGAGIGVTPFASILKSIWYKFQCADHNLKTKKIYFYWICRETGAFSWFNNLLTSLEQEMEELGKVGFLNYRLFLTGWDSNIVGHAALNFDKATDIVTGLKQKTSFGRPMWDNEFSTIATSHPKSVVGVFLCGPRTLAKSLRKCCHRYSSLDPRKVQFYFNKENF

Vero = assay: mammalian cell viability reduction – secondary assay, cytotoxicity control for West Nile virus antiviral project, dose response (AID 1650); assay type: functional; settings: Chlorocebus sabaeus
[2] = Luminescence Cell-Based Dose Retest to Confirm Inhibitors of Cancer Stem Cells. [Related pubchem assays (depositor defined):AID2717, AID2721]; assay type: functional; settings: Homo sapiens
[3] = molecular target: T3, Tyrosine-protein phosphatase non-receptor type 7 (Homo sapiens, UniProt P35236); assay: HePTP tyrosine phosphatase activity blockers – biochemical, absorbance, leukemia target, primary screen (AID 521); assay type: functional
T3 sequence (P35236 whole entry): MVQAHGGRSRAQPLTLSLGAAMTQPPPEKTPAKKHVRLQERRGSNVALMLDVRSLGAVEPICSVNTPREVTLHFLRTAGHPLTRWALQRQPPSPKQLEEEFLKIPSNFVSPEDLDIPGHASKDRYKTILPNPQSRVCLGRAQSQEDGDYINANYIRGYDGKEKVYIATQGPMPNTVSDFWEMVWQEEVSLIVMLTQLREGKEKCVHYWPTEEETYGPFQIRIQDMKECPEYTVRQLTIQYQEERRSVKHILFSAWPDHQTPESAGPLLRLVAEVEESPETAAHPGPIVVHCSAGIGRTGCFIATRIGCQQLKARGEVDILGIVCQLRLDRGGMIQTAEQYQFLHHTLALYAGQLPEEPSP

Bcl-2-related protein A1 [4] = molecular target: T4, Bcl-2-related protein A1 (Mus musculus, UniProt Q07440); assay: small-molecule antagonists of Bfl-1/BH3 interaction – biochemical, TR-FRET, mouse Bfl-1, confirmation (AID 621);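 note: TR-FRET binding of GST-Bfl-1 to FITC-labelled Bid peptide via terbium antibody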
T4 sequence (Q07440 whole entry): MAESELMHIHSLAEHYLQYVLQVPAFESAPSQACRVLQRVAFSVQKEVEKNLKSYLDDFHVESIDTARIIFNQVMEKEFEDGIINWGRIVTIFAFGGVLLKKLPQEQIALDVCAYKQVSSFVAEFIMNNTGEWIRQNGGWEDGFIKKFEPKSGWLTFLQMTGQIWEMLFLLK

Bcl-2-related protein A1 [5] = molecular target: T4, Bcl-2-related protein A1; assay: Bfl-1 binding inhibitors, SAR follow-up, biochemical, fluorescence polarization (AID 1070)
[6] = molecular target: Glyceraldehyde-3-phosphate dehydrogenase (Homo sapiens, UniProt P04406)
Sequence of Glyceraldehyde-3-phosphate dehydrogenase (P04406 whole entry): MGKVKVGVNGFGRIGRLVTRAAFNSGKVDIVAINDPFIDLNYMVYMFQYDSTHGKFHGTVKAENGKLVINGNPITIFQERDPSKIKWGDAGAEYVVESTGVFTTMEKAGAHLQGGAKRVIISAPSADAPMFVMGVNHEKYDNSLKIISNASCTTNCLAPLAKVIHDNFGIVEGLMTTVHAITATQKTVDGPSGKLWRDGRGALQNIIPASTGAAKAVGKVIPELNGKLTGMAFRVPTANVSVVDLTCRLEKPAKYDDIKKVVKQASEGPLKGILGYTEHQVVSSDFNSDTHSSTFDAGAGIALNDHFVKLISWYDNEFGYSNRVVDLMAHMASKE

[7] = viability loss of HPDE-C7K cells – cell-based, fluorescence, HTS, primary screen (AID 431); assay type: functional; settings: Homo sapiens
INS1 = assay: INS-1E survival protection against cytokine death – cell-based, luminescence, retest, dose response (AID 449756); assay type: functional; settings: Rattus norvegicus;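 note: cell death triggered by IL-1 beta plus TNF-alpha plus IFN-gamma mixture; protective hits raise ATP signal compared with cytokine alone wells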
[8] = Luminescence-based dose response cell-based high throughput screening assay for cytotoxic compounds using the IEC-6 intestinal epithelial cell line. [Related pubchem assays: 1858 (Summary AID.), 1825 (Counterscreen.), 1907 (Confirmation screen.)]; assay type: functional
[9] = HEK-293T cell viability reduction – luminescence, B-cell screen hits, cytotoxicity control for BCR NF-kB inhibitor project, dose response (AID 489021); assay type: functional, cell-based;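 note: HEK-293T cells carrying an NF-kB luciferase reporter; cells exposed to compound for about 14 hours before viability readout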
[10] = fluconazole-exposed Candida albicans growth modulators – fluorescence, retest, confirmation (AID 2467); assay type: functional, cell-based
[11] = NIH-3T3 fibroblast cytotoxicity, dose response, cytotoxicity control, cell-based, fluorescence, Alamar Blue, secondary assay (AID 2327); assay type: functional;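 note: NIH-3T3 mouse fibroblasts cultured with fluconazole at 8 µg/mL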
[12] = HPDE-C7 pancreatic duct cell viability loss – fluorescence, HTS (AID 430); assay type: functional, cell-based; settings: Homo sapiens
[13] = molecular target: Serine/threonine-protein phosphatase PP1-alpha catalytic subunit (Homo sapiens, UniProt P62136); assay: inhibition of protein phosphatase 1 activity – biochemical, fluorescence, dose response (AID 2394)
Sequence of Serine/threonine-protein phosphatase PP1-alpha catalytic subunit (P62136 whole entry): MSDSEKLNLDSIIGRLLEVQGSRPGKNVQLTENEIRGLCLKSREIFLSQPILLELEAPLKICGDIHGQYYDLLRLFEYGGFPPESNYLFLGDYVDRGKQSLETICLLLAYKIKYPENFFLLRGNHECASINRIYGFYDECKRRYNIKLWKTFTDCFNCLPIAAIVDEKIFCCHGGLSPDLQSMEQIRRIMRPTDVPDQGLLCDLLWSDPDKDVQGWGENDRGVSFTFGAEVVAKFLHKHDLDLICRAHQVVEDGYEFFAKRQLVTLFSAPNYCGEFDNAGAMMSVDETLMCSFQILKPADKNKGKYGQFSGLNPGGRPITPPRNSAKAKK

[14] = molecular target: Serine/threonine-protein phosphatase (Homo sapiens, UniProt Q9BPW0); assay: inhibition of protein phosphatase 5 activity – biochemical, fluorescence, dose response (AID 2395)
Sequence of Serine/threonine-protein phosphatase (Q9BPW0 whole entry): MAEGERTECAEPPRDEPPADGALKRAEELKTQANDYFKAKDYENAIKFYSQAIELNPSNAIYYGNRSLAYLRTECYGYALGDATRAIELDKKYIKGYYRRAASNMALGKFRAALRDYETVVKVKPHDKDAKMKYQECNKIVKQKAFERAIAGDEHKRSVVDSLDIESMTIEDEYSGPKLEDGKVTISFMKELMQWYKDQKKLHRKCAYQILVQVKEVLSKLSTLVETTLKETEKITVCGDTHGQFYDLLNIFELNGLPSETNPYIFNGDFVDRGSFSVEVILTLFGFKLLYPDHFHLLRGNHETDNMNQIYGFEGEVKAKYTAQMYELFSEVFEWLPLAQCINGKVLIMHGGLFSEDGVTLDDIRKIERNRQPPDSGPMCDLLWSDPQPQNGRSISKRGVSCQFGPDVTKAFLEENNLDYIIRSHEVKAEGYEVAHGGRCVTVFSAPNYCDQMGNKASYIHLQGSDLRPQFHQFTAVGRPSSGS

[15] = molecular target: RNA-editing ligase 1, mitochondrial (Trypanosoma brucei brucei, UniProt P86926); assay: inhibition of trypanosome RNA editing ligase – biochemical, fluorescence, Trypanosoma brucei, dose response (AID 1117295); assay type: functional
Sequence of RNA-editing ligase 1, mitochondrial (P86926 whole entry): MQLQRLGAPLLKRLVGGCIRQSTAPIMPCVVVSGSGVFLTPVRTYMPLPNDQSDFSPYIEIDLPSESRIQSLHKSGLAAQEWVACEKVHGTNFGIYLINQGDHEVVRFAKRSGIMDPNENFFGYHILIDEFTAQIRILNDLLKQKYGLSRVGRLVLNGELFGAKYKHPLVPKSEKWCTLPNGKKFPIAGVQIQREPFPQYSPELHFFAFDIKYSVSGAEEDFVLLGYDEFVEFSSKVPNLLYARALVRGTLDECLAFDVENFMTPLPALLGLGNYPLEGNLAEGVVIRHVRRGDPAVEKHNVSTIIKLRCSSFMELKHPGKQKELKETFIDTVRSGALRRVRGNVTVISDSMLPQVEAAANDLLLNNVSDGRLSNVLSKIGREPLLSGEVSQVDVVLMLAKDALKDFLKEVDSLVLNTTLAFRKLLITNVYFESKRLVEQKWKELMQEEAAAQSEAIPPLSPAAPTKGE

[16] = molecular target: Histone-lysine N-methyltransferase NSD2 (Homo sapiens, UniProt O96028); assay type: biochemical
Sequence of Histone-lysine N-methyltransferase NSD2 (O96028 whole entry): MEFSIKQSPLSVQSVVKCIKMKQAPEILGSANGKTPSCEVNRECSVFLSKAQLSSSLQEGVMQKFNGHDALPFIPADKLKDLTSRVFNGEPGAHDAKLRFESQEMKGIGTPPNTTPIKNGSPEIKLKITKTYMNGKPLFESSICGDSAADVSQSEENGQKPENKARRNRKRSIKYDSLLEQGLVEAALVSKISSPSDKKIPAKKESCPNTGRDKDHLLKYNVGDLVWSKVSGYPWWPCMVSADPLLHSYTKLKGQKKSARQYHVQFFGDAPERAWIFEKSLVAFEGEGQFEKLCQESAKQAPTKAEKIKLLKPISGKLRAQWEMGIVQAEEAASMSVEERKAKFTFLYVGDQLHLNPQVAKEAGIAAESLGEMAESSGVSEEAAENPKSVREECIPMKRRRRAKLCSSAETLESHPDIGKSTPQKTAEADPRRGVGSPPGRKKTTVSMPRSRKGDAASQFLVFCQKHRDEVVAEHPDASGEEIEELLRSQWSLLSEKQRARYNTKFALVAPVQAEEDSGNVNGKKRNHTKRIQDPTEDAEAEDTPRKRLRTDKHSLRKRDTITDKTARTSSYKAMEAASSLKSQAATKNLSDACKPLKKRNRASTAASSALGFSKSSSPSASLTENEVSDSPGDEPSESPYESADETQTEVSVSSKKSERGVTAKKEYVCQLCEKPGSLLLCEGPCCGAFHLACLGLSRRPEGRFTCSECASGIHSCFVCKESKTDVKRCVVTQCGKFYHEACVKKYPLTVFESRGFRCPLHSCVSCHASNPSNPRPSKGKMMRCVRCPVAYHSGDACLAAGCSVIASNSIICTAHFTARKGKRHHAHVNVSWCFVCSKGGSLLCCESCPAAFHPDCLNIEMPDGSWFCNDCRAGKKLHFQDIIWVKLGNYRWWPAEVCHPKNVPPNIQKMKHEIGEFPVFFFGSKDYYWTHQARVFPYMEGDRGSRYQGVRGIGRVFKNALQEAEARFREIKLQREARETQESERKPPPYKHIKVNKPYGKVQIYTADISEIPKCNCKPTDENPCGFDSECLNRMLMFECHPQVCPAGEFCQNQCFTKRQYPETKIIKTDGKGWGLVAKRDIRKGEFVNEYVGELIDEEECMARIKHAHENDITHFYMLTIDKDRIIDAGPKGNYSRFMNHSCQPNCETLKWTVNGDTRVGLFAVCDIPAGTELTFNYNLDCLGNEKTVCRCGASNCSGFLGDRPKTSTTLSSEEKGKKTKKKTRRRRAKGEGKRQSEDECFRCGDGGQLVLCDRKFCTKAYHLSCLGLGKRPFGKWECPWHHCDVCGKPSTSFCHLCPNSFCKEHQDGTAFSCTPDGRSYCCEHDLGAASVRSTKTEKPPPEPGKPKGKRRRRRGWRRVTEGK

[17] = NIH3T3 cell viability loss – ATP luminescence, mouse fibroblasts, counter-screen, dose response (AID 2010); assay type: functional, cell-based;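 note: cells exposed to compound for about 90 hours before reading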
[18] = molecular target: T5, Apoptotic protease-activating factor 1 (Homo sapiens, UniProt O14727); assay type: functional
T5 sequence (O14727 whole entry): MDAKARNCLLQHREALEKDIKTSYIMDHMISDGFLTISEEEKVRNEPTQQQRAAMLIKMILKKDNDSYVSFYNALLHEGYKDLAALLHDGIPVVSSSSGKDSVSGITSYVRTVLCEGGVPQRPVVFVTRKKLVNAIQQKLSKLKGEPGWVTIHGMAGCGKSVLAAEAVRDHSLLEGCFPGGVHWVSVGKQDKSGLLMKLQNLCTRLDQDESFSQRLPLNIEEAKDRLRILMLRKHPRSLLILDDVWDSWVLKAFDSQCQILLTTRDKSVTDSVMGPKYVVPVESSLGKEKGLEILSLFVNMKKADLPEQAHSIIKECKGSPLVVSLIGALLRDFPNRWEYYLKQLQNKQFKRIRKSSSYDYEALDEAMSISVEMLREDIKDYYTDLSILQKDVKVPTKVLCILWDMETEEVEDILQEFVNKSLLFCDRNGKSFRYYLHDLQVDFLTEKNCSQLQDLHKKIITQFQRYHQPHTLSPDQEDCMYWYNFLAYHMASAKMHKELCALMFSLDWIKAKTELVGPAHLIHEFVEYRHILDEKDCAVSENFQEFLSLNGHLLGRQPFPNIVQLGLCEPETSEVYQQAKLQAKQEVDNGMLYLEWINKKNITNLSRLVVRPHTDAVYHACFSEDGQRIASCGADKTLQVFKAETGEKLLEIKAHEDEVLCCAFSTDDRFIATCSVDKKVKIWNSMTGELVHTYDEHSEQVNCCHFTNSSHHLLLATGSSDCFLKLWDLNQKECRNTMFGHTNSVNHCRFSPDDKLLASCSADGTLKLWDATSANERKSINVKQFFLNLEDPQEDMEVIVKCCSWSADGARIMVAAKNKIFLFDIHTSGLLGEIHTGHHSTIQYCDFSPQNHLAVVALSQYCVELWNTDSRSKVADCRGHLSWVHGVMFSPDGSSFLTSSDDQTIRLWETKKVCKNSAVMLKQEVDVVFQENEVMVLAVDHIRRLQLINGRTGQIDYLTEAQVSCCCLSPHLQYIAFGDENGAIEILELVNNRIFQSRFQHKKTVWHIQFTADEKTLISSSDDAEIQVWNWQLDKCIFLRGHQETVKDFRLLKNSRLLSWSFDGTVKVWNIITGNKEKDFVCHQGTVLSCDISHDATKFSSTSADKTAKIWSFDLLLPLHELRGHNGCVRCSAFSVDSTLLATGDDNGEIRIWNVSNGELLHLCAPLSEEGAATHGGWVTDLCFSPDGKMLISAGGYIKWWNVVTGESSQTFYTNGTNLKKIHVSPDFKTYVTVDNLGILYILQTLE

[19] = Trypanosoma cruzi growth suppression in host cells – NIH3T3 host cells, beta-gal luminescence, confirmation (AID 2044); assay type: functional, cell-based;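 note: intracellular parasites grown in NIH/3T3 mouse fibroblasts as host cells; luminescent beta-galactosidase reporter signal from transgenic T. cruzi replicating inside host cells; inhibitors lower the luminescence signal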

Compound: c1ccc2c(c1)Nc1nc3ccccc3nc1N2
IC50 (NADPH oxidase 1): 0.36 µM (active)

Compound: Cc1cc(C)c(C(=O)/C=C/c2ccc(C(C)C)cc2)c(O)n1
CC50 (Vero): 35.8 µM (active) | AC50 [2]: 9.65 µM (active)

Compound: C[C@H]1CCC/C=C/C2C[C@H](O)CC2[C@H](O)/C=C/C(=O)O1 (stereo partly drawn)
EC50 [7]: 0.24 µM (active) | AC50 (INS1): 1.01 µM (active) | IC50 [8]: 0.446 µM (active) | IC50 [9]: > 80 µM (inactive) | EC50 [10]: 0.843 µM (active) | EC50 [11]: 2.37 µM (inconclusive) | EC50 [12]: 0.23 µM (active)

Compound: Oc1ccccc1/C=N/Nc1cc(N2CCCC2)nc(N2CCCC2)n1
IC50 [13]: 34.4 µM (not active) | IC50 [14]: 4.26 µM (active) | IC50 [15]: > 96.6 µM (inactive) | AC50 [16]: 1.97 µM (active) | EC50 [17]: > 60 µM (inconclusive) | IC50 [18]: 1.03 µM (active) | EC50 [19]: 1.85 µM (active)

Further lines, results first:

EC50 [1]: 12.5 µM (not active) | IC50 (Leucine aminopeptidase): 44.5 µM (active)
Compound: Nc1[nH]ncc1C(=O)Nc1cccc(C(F)(F)F)c1

IC50 [3]: > 100 µM (not active)
Compound: CCc1ccccc1N(CC(=O)OC)S(C)(=O)=O

IC50 (Bcl-2-related protein A1 [4]): 4.96 µM (active) | IC50 (Bcl-2-related protein A1 [5]): 12.6 µM (active) | IC50 [6]: > 100 µM (not active)
Compound: COCCNC1=C(Cl)C(=O)N(c2ccc(Cl)c(Cl)c2)C1=O
